Results on 16 compounds are retold here after US20240109918A1, “HETEROCYCLIC COMPOUNDS AND USES THEREOF” (Kumquat Biosciences Inc., priority 2022, published 2024).

Assay [1] concerns the target T1, KRASwt (Homo sapiens, UniProt P01116).
T1 construct: made in house; host or cells: E. coli BL21 (DE3)
Nature of the assay: Bio-Biochem-PPI-HTRF Ras-SOS1 interaction assay (KRAS wt). Type of assay: biochemical. The following applies: 5 nM. An outline of the steps: (§1)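 HTRF readout (ex 337 nm; em 620 and 665 nm) after ≥~10 min incubation; IC50 fitted from 665/620 ratio. GST-K-Ras wt or G12D plus anti-GST-Eu(K), His-hSOS1 plus anti-6His-XL665; duplicate dilutions, 10 μM top.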
(In general: TR-FRET usually uses a lanthanide donor and a delayed reading to cut background.)

In assay [2] the target is T2, KRASG12D (Homo sapiens, UniProt P01116, G12D).
T2 construct: made in house; host or cells: E. coli BL21 (DE3)
The assay is described as follows: Bio-Biochem-PPI-HTRF Ras-SOS1 interaction assay (KRAS G12D). It counts as biochemical. Conditions: 5 nM. An outline of the steps: as §1

T1 sequence (P01116 1-188 isoform P01116-2): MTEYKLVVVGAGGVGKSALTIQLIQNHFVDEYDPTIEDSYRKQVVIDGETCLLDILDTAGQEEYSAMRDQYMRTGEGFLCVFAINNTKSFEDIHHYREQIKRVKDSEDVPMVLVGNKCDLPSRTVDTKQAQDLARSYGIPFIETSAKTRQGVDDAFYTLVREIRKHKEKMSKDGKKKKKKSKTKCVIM
T2 sequence (P01116 1-188 isoform P01116-2 G12D): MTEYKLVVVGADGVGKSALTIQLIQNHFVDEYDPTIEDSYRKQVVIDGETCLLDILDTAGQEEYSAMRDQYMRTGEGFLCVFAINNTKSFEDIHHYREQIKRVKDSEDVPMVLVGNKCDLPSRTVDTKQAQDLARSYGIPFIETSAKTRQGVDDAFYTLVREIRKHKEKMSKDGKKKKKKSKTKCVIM

In general, IC50 refers to the concentration that inhibits the measured activity by half. Low readings indicate higher potency, high ones lower potency. Turning to `N#Cc1c(N)sc2c(F)ccc(-c3c(Cl)cc4c(N5CCCCC6(CN(C(=O)C7CC7C(F)F)C6)C5)nc(OC[C@@]56CCCN5C[C@H](F)C6)nc4c3F)c12` (stereo partly drawn) [compound 287, 2-amino-4-(6-chloro-4-(2-(2-(difluoromethyl)cyclopropane-1-carbonyl)-2,6-diazaspiro[3.6]decan-6-yl)-8-fluoro-2-(((2R,7aS)-2-fluorotetrahydro-1H-pyrrolizin-7a(5H)-yl)methoxy)quinazolin-7-yl)-7-fluorobenzo[b]thiophene-3-carbonitrile], the IC50 in assay [1] and in assay [2] was less than 5 µM throughout.
For the compound `CC1CCCC2(CN(C(=O)C3CC3(F)F)C2)CN1c1nc(OC[C@@]23CCCN2C[C@H](F)C3)nc2c(F)c(-c3ccc(F)c4sc(N)c(C#N)c34)c(Cl)cc12` (stereo partly drawn) [compound 288, 2-amino-4-(6-chloro-4-(2-(2,2-difluorocyclopropane-1-carbonyl)-7-methyl-2,6-diazaspiro[3.6]decan-6-yl)-8-fluoro-2-(((2R,7aS)-2-fluorotetrahydro-1H-pyrrolizin-7a(5H)-yl)methoxy)quinazolin-7-yl)-7-fluorobenzo[b]thiophene-3-carbonitrile], the 50% inhibitory concentration (IC50) in assay [1] and in assay [2] was less than 5 µM in each case.
Take `N#Cc1c(N)sc2c(F)ccc(-c3c(Cl)cc4c(N5CCCCC6(CN(C(=O)NC7(C(F)(F)F)CC7)C6)C5)nc(OC[C@@]56CCCN5C[C@H](F)C6)nc4c3F)c12` [compound 289, 6-(7-(2-amino-3-cyano-7-fluorobenzo[b]thiophen-4-yl)-6-chloro-8-fluoro-2-(((2R,7aS)-2-fluorotetrahydro-1H-pyrrolizin-7a(5H)-yl)methoxy)quinazolin-4-yl)-N-(1-(trifluoromethyl)cyclopropyl)-2,6-diazaspiro[3.6]decane-2-carboxamide]: the half-maximal inhibitory concentration (IC50) in assay [1] and in assay [2] was less than 5 µM each time.
On to `N#Cc1c(N)sc2c(F)ccc(-c3c(Cl)cc4c(N5CCC(F)(F)CC6(CN(C(=O)[C@@H]7CC7(F)F)C6)C5)nc(OC[C@@]56CCCN5C[C@H](F)C6)nc4c3F)c12` [compound 290, 2-amino-4-(6-chloro-4-(2-((S)-2,2-difluorocyclopropane-1-carbonyl)-9,9-difluoro-2,6-diazaspiro [3.6]decan-6-yl)-8-fluoro-2-(((2R,7aS)-2-fluorotetrahydro-1H-pyrrolizin-7a(5H)-yl)methoxy)quinazolin-7-yl)-7-fluorobenzo[b]thiophene-3-carbonitrile], for which the IC50 in assay [1] and in assay [2] was less than 5 µM throughout.
For `N#Cc1c(N)sc2c(F)ccc(-c3c(Cl)cc4c(N5CCCCC6(CN(C(=O)N7CCC(F)(F)C7)C6)C5)nc(OC[C@@]56CCCN5C[C@H](F)C6)nc4c3F)c12` [compound 292, 2-amino-4-(6-chloro-4-(2-(3,3-difluoropyrrolidine-1-carbonyl)-2,6-diazaspiro[3.6]decan-6-yl)-8-fluoro-2-(((2R,7aS)-2-fluorotetrahydro-1H-pyrrolizin-7a(5H)-yl)methoxy)quinazolin-7-yl)-7-fluorobenzo[b]thiophene-3-carbonitrile], the IC50 in assay [1] and in assay [2] was less than 5 µM throughout.
As for `N#Cc1c(N)sc2c(F)ccc(-c3c(Cl)cc4c(N5CCCCC6(CN(C(=O)C7COC7)C6)C5)nc(OC[C@@]56CCCN5C[C@H](F)C6)nc4c3F)c12` [compound 293, 2-amino-4-(6-chloro-8-fluoro-2-(((2R,7aS)-2-fluorotetrahydro-1H-pyrrolizin-7a(5H)-yl)methoxy)-4-(2-(oxetane-3-carbonyl)-2,6-diazaspiro[3.6]decan-6-yl)quinazolin-7-yl)-7-fluorobenzo[b]thiophene-3-carbonitrile], the concentration for half-maximal inhibition (IC50) in assay [1] and in assay [2] was less than 5 µM throughout.
For the compound `N#Cc1c(N)sc2c(F)ccc(-c3c(Cl)cc4c(N5CCCCC6(CN(C(=O)C7CC(C#N)C7)C6)C5)nc(OC[C@@]56CCCN5C[C@H](F)C6)nc4c3F)c12` (stereo partly drawn) [compound 294, 2-amino-4-(6-chloro-4-(2-(3-cyanocyclobutane-1-carbonyl)-2,6-diazaspiro[3.6]decan-6-yl)-8-fluoro-2-(((2R,7aS)-2-fluorotetrahydro-1H-pyrrolizin-7a(5H)-yl)methoxy)quinazolin-7-yl)-7-fluorobenzo[b]thiophene-3-carbonitrile], the IC50 in assay [1] and in assay [2] was less than 5 µM throughout.
On to `N#Cc1c(N)sc2c(F)ccc(-c3c(Cl)cc4c(N5CCCCC6(CN(C(=O)[C@@H]7CCCN7)C6)C5)nc(OC[C@@]56CCCN5C[C@H](F)C6)nc4c3F)c12` [compound 296, 4-(4-(2-(L-prolyl)-2,6-diazaspiro[3.6]decan-6-yl)-6-chloro-8-fluoro-2-(((2R,7aS)-2-fluorotetrahydro-1H-pyrrolizin-7a(5H)-yl)methoxy)quinazolin-7-yl)-2-amino-7-fluorobenzo[b]thiophene-3-carbonitrile], for which the IC50 in assay [1] and in assay [2] was less than 5 µM each time.
For the compound `N#Cc1c(N)sc2c(F)ccc(-c3c(Cl)cc4c(N5CCCCC6(CN(C(=O)N7CC(F)(F)C7)C6)C5)nc(OC[C@@]56CCCN5C[C@H](F)C6)nc4c3F)c12` [compound 298, 2-amino-4-(6-chloro-4-(2-(3,3-difluoroazetidine-1-carbonyl)-2,6-diazaspiro[3.6]decan-6-yl)-8-fluoro-2-(((2R,7aS)-2-fluorotetrahydro-1H-pyrrolizin-7a(5H)-yl)methoxy)quinazolin-7-yl)-7-fluorobenzo[b]thiophene-3-carbonitrile], the IC50 in assay [1] and in assay [2] was less than 5 µM in each case.
As to `N#Cc1c(N)sc2c(F)ccc(-c3c(Cl)cc4c(N5CCCCC6(CN(C(=O)C7CCOCC7)C6)C5)nc(OC[C@@]56CCCN5C[C@H](F)C6)nc4c3F)c12` [compound 300, 2-amino-4-(6-chloro-8-fluoro-2-(((2R,7aS)-2-fluorotetrahydro-1H-pyrrolizin-7a(5H)-yl)methoxy)-4-(2-(tetrahydro-2H-pyran-4-carbonyl)-2,6-diazaspiro[3.6]decan-6-yl)quinazolin-7-yl)-7-fluorobenzo[b]thiophene-3-carbonitrile], the IC50 in assay [1] and in assay [2] was less than 5 µM each time.
For the compound `C#Cc1c(F)ccc2cc(O)cc(-c3ncc4c(N5CCOCC6(CN(C(=O)[C@@H]7CC7(F)F)C6)C5)nc(OC[C@@]56CCCN5C[C@H](F)C6)nc4c3F)c12` [compound 301, ((S)-2,2-difluorocyclopropyl) (9-(7-(8-ethynyl-7-fluoro-3-hydroxynaphthalen-1-yl)-8-fluoro-2-(((2R,7aS)-2-fluorotetrahydro-1H-pyrrolizin-7a(5H)-yl)methoxy)pyrido[4,3-d]pyrimidin-4-yl)-6-oxa-2,9-diazaspiro[3.6]decan-2-yl)methanone], the 50% inhibitory concentration (IC50) in assay [1] and in assay [2] was less than 5 µM in each case.
In the case of `N#Cc1c(N)sc2c(F)ccc(-c3c(Cl)cc4c(N5CCCCC6(CN(C(=O)COC(F)(F)C(F)(F)F)C6)C5)nc(OC[C@@]56CCCN5C[C@H](F)C6)nc4c3F)c12` [compound 302, 2-amino-4-(6-chloro-8-fluoro-2-(((2R,7aS)-2-fluorotetrahydro-1H-pyrrolizin-7a(5H)-yl)methoxy)-4-(2-(2-(perfluoroethoxy)acetyl)-2,6-diazaspiro[3.6]decan-6-yl)quinazolin-7-yl)-7-fluorobenzo[b]thiophene-3-carbonitrile], the IC50 in assay [1] and in assay [2] was less than 5 µM throughout.
For `N#Cc1c(N)sc2c(F)ccc(-c3c(Cl)cc4c(N5CCCCC6(CN(C(=O)C7CC8CCC7O8)C6)C5)nc(OC[C@@]56CCCN5C[C@H](F)C6)nc4c3F)c12` (stereo partly drawn) [compound 303, 4-(4-(2-(7-oxabicyclo[2.2.1]heptane-2-carbonyl)-2,6-diazaspiro[3.6]decan-6-yl)-6-chloro-8-fluoro-2-(((2R,7aS)-2-fluorotetrahydro-1H-pyrrolizin-7a(5H)-yl)methoxy)quinazolin-7-yl)-2-amino-7-fluorobenzo[b]thiophene-3-carbonitrile], the IC50 in assay [1] and in assay [2] was less than 5 µM in each case.
On to `N#Cc1c(N)sc2c(F)ccc(-c3c(Cl)cc4c(N5CCCCC6(CN(C(=O)C[C@H]7CCOC7)C6)C5)nc(OC[C@@]56CCCN5C[C@H](F)C6)nc4c3F)c12` [compound 304, 2-amino-4-(6-chloro-8-fluoro-2-(((2R,7aS)-2-fluorotetrahydro-1H-pyrrolizin-7a(5H)-yl)methoxy)-4-(2-(2-((R)-tetrahydrofuran-3-yl)acetyl)-2,6-diazaspiro[3.6]decan-6-yl)quinazolin-7-yl)-7-fluorobenzo[b]thiophene-3-carbonitrile], for which the IC50 in assay [1] and in assay [2] was less than 5 µM in each case.
With `C#Cc1c(F)ccc2cc(O)cc(-c3ccc4c(N5CCCCC6(CN(C(=O)[C@H]7CC7(F)F)C6)C5)nc(OC[C@@]56CCCN5C[C@H](F)C6)nc4c3F)c12` [compound 305, ((R)-2,2-difluorocyclopropyl) (6-(7-(8-ethynyl-7-fluoro-3-hydroxynaphthalen-1-yl)-8-fluoro-2-(((2R,7aS)-2-fluorotetrahydro-1H-pyrrolizin-7a(5H)-yl)methoxy)quinazolin-4-yl)-2,6-diazaspiro[3.6]decan-2-yl)methanone], the half-maximal inhibitory concentration (IC50) in assay [1] and in assay [2] was less than 5 µM throughout.
`COC1CN(C(=O)N2CC3(CCCCN(c4nc(OC[C@@]56CCCN5C[C@H](F)C6)nc5c(F)c(-c6ccc(F)c7sc(N)c(C#N)c67)c(Cl)cc45)C3)C2)C1` [compound 306, 2-amino-4-(6-chloro-8-fluoro-2-(((2R,7aS)-2-fluorotetrahydro-1H-pyrrolizin-7a(5H)-yl)methoxy)-4-(2-(3-methoxyazetidine-1-carbonyl)-2,6-diazaspiro[3.6]decan-6-yl)quinazolin-7-yl)-7-fluorobenzo[b]thiophene-3-carbonitrile]: the IC50 in assay [1] and in assay [2] was less than 5 µM throughout.
